This is an account of results in paper PMC9387934, “Randomized single oral dose phase 1 study of safety, tolerability, and pharmacokinetics of Iminosugar UV-4 Hydrochloride (UV-4B) in healthy subjects” (PLoS Neglected Tropical Diseases, 2022).

Molecules are shown by their SMILES. Where a name gives a salt, the structure may show the parent alone. Read-outs that look alike come from different tables or passages of the source.

The conditions of data set [1]: cited from earlier work.
Details of data set [2]: method as in Investigator’s Brochure (IB). To be noted: ref Investigator’s Brochure (IB), cited from earlier work.
Data set [3] is described as follows: Cardiovascular assessment in dogs, single dose GLP study (UV4-COV-0023). It counts as in vivo. To be noted: dog, 50 mg/kg. The text has this: dependent from lowest to highest partitioning in mouse, rat, human, and dog. Mean blood cell partitioning ranged from 29.7% to 37.2% in mouse, 32.1% to 35.1% in rat, 32.7% to 53.3% in human, and 58.6% to 63.8% in dog. […]
hepatocytes. Metabolism was minimal and appears to involve O-demethylation, oxidation, and direct glucuronidation of UV-4. Three metabolites were tentatively identified in mouse and dog hepatocytes, whereas only the O-demethylation and oxidation metabolites, but not the direct glucuronidation product of UV-4, were found in human hepatocytes.
Following a single oral dose, UV-4 appears to be rapidly excreted with t1/2 values ranging from 2 hours in ferrets, 3 to 5 hours in mice and rats, and 4 to 9 hours in dogs. In rats, urinary excretion of UV-4 after an oral dose of UV-4B was rapid, with the highest percent dose excreted in the initial 0 to 4 hour period after dosing. […]
Based on the dog NOAEL [10 mg/kg/dose TID] and the appropriate conversion recommended in the FDA guidance (e.g., 60 kg body weight for humans), the HED for the NOAEL of UV-4B in dog is 333 mg TID. Considering that the lowest dose tested in dogs (2 mg/kg TID or expressed as HED, 67 mg TID) was associated with decreases in PLT count (mild), increases in aPTT (very mild), increases in AST (up to 3x BL), and histopathological changes, a 100-fold safety factor was applied to the NOAEL. […]

The conditions of data set [4]: cited from earlier work. The source holds these as a separate data set.
On the set-up of data set [5]: method as in Investigator’s Brochure (IB). Conditions: mice, 1000 mg/kg single dose; ref Investigator’s Brochure (IB); cited from earlier work.
The conditions of data set [6]: ICH accelerated stability storage condition; cited from earlier work.
On the set-up of data set [7]: method as in Investigator’s Brochure (IB). Conditions: 50 mg/kg/day for 13 days; ref Investigator’s Brochure (IB); cited from earlier work.
Details of data set [8]: method as in Investigator’s Brochure (IB). To be noted: beagle dogs, single dose of 400 mg/kg; ref Investigator’s Brochure (IB); cited from earlier work.
In the next data set the test system is CYP1A2. Further details: method as in Investigator’s Brochure (IB). To be noted: in vitro; ref Investigator’s Brochure (IB); cited from earlier work.
A further data set concerns CYP2C8. Also on record: method as in Investigator’s Brochure (IB). To be noted: in vitro; ref Investigator’s Brochure (IB); cited from earlier work.
In the next data set the test system is CYP2C9. Further details: method as in Investigator’s Brochure (IB). Conditions: in vitro; ref Investigator’s Brochure (IB); cited from earlier work.
The mark [9] stands for this setting: mice, Day 14, at NOAEL 300 mg/kg/day, ref Investigator’s Brochure (IB).
Setting [10] is: mouse, 25 TID mg/kg, Day 28 (Recovery).
Where [11] appears, read: mouse, 25 TID mg/kg, dosing phase (Day 14).
[12] abbreviates: mouse, 100 TID mg/kg (NOAEL), Day 28 (Recovery).

For orientation: NOAEL means the highest dose or exposure tested at which no adverse effect was seen. Regarding `COCCCCCCCCCN1C[C@H](O)[C@@H](O)[C@H](O)[C@H]1CO` [UV-4B, N-(9’-methoxynonyl)-1-deoxynojirimycin hydrochloride], the “No clinically relevant effects” value in [1] (dog CV single dose, 10 mg/kg) is “−”. In [1] (dogs, 10 mg/kg, ref Investigator’s Brochure (IB)), the Cardiovascular assessment result is reported as “no clinically relevant effects”. Besides, in data set [1] (dogs, 50 or 200 mg/kg, ref Investigator’s Brochure (IB)), the “Cardiovascular assessment, only change outside the normal range” value was “decreased arterial pulse pressure”. Also, in [2] (male and female rats, 50 mg/kg/day before mating through Gestation Day 13), the Fertility finding result was “decreased pregnancy and fertility indices”. In data set [2] (rats, all doses (8, 20, and 50 mg/kg/day)), the Finding in males entry is reported as “decreased sperm motility”. For the same compound, the “Multiple of predicted minimum clinically efficacious dose at which arterial pulse pressure decreased” value in [3] was “approximately 30 fold”. In data set [4] (mice, 14 days of TID administration, ref Investigator’s Brochure (IB)), the NOAEL is given as 300 mg/kg/day. Moreover, the “No observed effect level (NOEL)” value in data set [4] (mice, 14 days, a NOEL was not present at this dose level, ref Investigator’s Brochure (IB)) is given as below 25 mg/kg/dose. Further, in [4] (setting [9]), the “AUC(0-8)” value is listed as 54,435 ng•h/mL and the “Mean Cmax” value is given as 32,617 ng/mL. In addition, in data set [4] (setting [10]), the “Decreased thymus weight (M)” value is recorded as “−”, the “Follicular epithelium vacuolation in thyroid” value was “−” and the “Lymphoid depletion of the thymus (M)” value is “−”. Moreover, in [4] (setting [11]), the “Decreased thymus weight (M)” value was “↓ (M)” and the “Lymphoid depletion of the thymus (M)” value was “P (M)”. Further, in data set [4] (setting [12]), the “Decrease in red cell mass (RBC Count, HGB, and HCT)” value is given as “−”; the “Decrease in thymus weight” value is on record as “−”; the “Follicular epithelium vacuolation in thyroid” value is recorded as “−”; the “Lymphoid depletion in thymus” value is on record as “−”. The “Neutrophilic infiltration and erosion/ulcer rectum (F)” value in data set [4] (setting [12]) is “−”. Also, the Respiratory function entry in [5] was “no adverse treatment-related effects”. Also, in [6], the “Stability trend of drug substance batches” value is listed as “increases in water content”. The “Finding in rabbit offspring” value in [7] was “skeletal and visceral malformations”. In addition, the Neurologic finding entry in data set [8] is “tremors”.

Take `COCCCCCCCCCN1C[C@H](O)[C@@H](O)[C@H](O)[C@H]1CO` [UV-4, N-(9’-methoxynonyl)-1-deoxynojirimycin]: the “Direct inhibition of CYP1A2” value with CYP1A2 is “No clinically relevant direct inhibition”. Moreover, the “Direct inhibition of CYP2C8” value with CYP2C8 is on record as “No clinically relevant direct inhibition”. The “Direct inhibition of CYP2C9” value in the data set on CYP2C9 is listed as “No clinically relevant direct inhibition”.
